The values below come from patent US5196547A, “Meso-azacyclic amides of imidazopyridine carboxylic acids and analogs thereof” (G. D. Searle & Co., priority 1992, dated 1993).

The target of this test is T1, 5-HT3 receptor (Rattus norvegicus, UniProt P35563).
T1 construct: Brain cortices are obtained from male rats and a membrane fraction prepared by standard techniques; from tissue; host or cells: male rat brain cortex, membrane fraction
T1 sequence (P35563 24-483): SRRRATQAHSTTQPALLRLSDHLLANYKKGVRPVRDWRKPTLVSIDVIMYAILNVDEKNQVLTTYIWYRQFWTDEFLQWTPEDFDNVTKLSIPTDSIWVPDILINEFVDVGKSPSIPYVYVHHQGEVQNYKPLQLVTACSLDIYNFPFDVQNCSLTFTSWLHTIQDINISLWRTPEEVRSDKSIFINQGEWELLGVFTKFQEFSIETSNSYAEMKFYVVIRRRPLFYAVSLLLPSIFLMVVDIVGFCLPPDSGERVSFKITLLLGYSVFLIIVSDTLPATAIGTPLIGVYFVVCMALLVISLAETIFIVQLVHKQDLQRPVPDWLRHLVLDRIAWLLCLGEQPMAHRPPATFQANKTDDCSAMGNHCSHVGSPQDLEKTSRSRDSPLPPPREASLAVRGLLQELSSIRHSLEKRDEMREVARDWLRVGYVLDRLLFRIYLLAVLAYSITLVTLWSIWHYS
The test is described as follows: Serotonin (5-HT3) radioligand receptor binding assay, [3H]-GR65630. As to the method:
5-HT3 antagonism can be determined by the radioligand receptor binding assay as described herein and in the in vivo Bezold-Jarisch reflex procedure.
GR65630 binds to the 5-HT3 receptor. Brain cortices are obtained from male rats and a membrane fraction prepared by standard techniques. 0.04 mg of membrane prep is incubated with 0.2 nM [^3 H]-GR656630 for 60 minutes at 22° C. […] Membranes are filtered and washed 3 times and the filters are counted to determine [3H]-GR65630 specifically bound.*
*Literature References: Kilpatrick GJ, Jones BJ and Tyers MG. Identification and distribution of 5-HT3 receptors in rat brain using radioligand binding. Nature, 330 : 746-748, 1987.

Compound `COc1cc(N)c(Cl)cc1C(=O)NC1CN2CCC1CC2` (centres unmarked) [Zacopride] yielded an IC50 of 0.55 nM and an inhibitory constant (Ki) of 0.18 nM.
`c1ccc2nc(N3CCNCC3)ccc2c1` [Quipazine]: the IC50 stood at 0.5 nM and the inhibitory constant (Ki) is 0.18 nM.
Taken in the same sequence, the figures for `COc1ccc2[nH]cc(C3=CCNCC3)c2c1` [RU24969] were 320 nM and 1850 nM.
On to `Cc1nc[nH]c1CCC(=O)c1cn(C)c2ccccc12` [GR65630], for which the dissociation constant Kd amounted to 2.46 nM. Also, the “% Specific Binding” value ([3H]-GR65630, non-specific binding in the presence of 1 uM ICS 205-930) is given as 70%.

Usually IC50 stands for the concentration needed to halve the response being measured. Higher therefore signals weaker potency. By Ki is commonly meant the equilibrium dissociation constant of an inhibitor or competing ligand from its target. The Kd is a measure of binding affinity in units of concentration. High values mean lower affinity, low ones higher affinity.
